Measurements as given in US9586936B2, “Heteroarylamine derivatives as protein kinase inhibitors” (KOREA INSTITUTE OF SCIENCE AND TECHNOLOGY, priority 2014, dated 2017).

Tests used:
[1] = microsomal stability; format: in vitro ADME, Mouse; conditions: Mouse
Procedure: (§1) The microsomal stability of N-(2,6-dichloro-3,5-dimethoxyphenyl)-1-(6-((4-(4-ethylpiperazin-1-yl)phenyl)amino)pyrimidin-4-yl)-1H-benz[d]imidazol-2-amine synthesized in Example 1, as a representative compound of the present invention, was evaluated.

[2] = microsomal stability; format: in vitro ADME, Rat; conditions: Rat
Procedure: as §1

[3] = microsomal stability; format: in vitro ADME, Human; conditions: Human
Procedure: as §1

[4] = microsomal stability; format: in vitro ADME, Dog; conditions: Dog
Procedure: as §1

[5] = test system: bladder cancer cell line RT112; experiment: inhibition of proliferation of cancer cells; format: cell-based; conditions: Homo sapiens, RT-112, read-out: Ability of inhibiting proliferation of RT112 (GI50)
Procedure: The ability of the compound of the present invention of inhibiting the proliferation of the bladder cancer cell line RT112 was determined as the GI50 value.

[6] = molecular target: FGFR3 (Homo sapiens, UniProt P22607); conditions: literature statement; cited from earlier work
[7] = test system: RT112 bladder cancer cell line; conditions: literature statement; cited from earlier work

Sequence of FGFR3 (P22607 23-806): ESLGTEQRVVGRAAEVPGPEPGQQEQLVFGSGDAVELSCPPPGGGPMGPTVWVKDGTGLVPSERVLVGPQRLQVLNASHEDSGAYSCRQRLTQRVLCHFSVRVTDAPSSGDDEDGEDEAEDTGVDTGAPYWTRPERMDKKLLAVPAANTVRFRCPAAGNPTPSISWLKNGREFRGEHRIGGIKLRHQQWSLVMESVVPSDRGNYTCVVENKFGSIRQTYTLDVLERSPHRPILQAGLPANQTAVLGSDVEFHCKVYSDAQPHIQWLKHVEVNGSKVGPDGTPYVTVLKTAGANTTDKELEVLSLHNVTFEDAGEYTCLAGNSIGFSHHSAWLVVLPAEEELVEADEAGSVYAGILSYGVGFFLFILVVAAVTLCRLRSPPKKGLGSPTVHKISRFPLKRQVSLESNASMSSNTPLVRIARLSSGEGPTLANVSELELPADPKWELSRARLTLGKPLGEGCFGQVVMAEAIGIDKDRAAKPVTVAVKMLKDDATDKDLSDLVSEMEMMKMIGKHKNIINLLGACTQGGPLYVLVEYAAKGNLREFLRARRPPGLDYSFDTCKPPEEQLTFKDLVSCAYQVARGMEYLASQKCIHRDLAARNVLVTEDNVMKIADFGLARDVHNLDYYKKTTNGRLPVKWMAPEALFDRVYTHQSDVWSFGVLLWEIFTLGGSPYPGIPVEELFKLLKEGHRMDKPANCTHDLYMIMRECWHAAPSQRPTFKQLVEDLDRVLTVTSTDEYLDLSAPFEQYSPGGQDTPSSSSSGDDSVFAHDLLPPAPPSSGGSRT

SMILES: Cc1ncc2n1-c1ccc(Cl)cc1C(c1ccccc1F)=NC2 [midazolam, reference compound]
- microsomal stability (% at time) ([1]; 0 min): 100.00%
- microsomal stability (% at time) ([1]; 5 min): 10.42%
- microsomal stability (% at time) ([1]; 10 min): 1.13%
- microsomal stability (% at time) ([1]; 15 min): 0.18%
- microsomal stability (% at time) ([1]; 30 min): 0.05%
- microsomal stability (% at time) ([2]; 0 min): 100.00%
- microsomal stability (% at time) ([2]; 5 min): 13.65%
- microsomal stability (% at time) ([2]; 10 min): 1.01%
- microsomal stability (% at time) ([2]; 15 min): 0.14%
- microsomal stability (% at time) ([2]; 30 min): 0.04%
- microsomal stability (% at time) ([3]; 0 min): 100.00%
- microsomal stability (% at time) ([3]; 5 min): 38.75%
- microsomal stability (% at time) ([3]; 10 min): 12.92%
- microsomal stability (% at time) ([3]; 15 min): 5.60%
- microsomal stability (% at time) ([3]; 30 min): 0.73%
- microsomal stability (% at time) ([4]; 0 min): 100.00%
- microsomal stability (% at time) ([4]; 5 min): 6.23%
- microsomal stability (% at time) ([4]; 10 min): 0.59%
- microsomal stability (% at time) ([4]; 15 min): 0.27%
- microsomal stability (% at time) ([4]; 30 min): 0.10%

SMILES: COc1cc(N2CCOCC2)ccc1Nc1cc(-n2c(Nc3c(Cl)c(OC)cc(OC)c3Cl)nc3ccccc32)ncn1 [Example 4, N-(2,6-dichloro-3,5-dimethoxyphenyl)-1-(6-((2-methoxy-4-morpholinophenyl)amino)pyrimidin-4-yl)-1H-benz[d]imidazol-2-amine]
- GI50 [5]: < 1 µM

SMILES: COc1cc(OC)c(Cl)c(Nc2nc3ccccc3n2-c2cc(Nc3ncccn3)ncn2)c1Cl [Example 11, N-(2,6-dichloro-3,5-dimethoxyphenyl)-1-(6-(pyrimidin-2-ylamino)pyrimidin-4-yl)-1H-benz[d]imidazol-2-amine]
- GI50 [5]: < 1 µM

SMILES: COc1cc(N2CCN(C)CC2)ccc1Nc1cc(-n2c(Nc3c(Cl)c(OC)cc(OC)c3Cl)nc3ccccc32)ncn1 [Example 2, N-(2,6-dichloro-3,5-dimethoxyphenyl)-1-(6-((2-methoxy-4-(4-methylpiperazin-1-yl)phenyl)amino)pyrimidin-4-yl)-1H-benz[d]imidazol-2-amine]
- GI50 [5]: < 1 µM

SMILES: COc1cc(OC)c(Cl)c(Nc2nc3ccccc3n2-c2cc(N)ncn2)c1Cl [Example 8]
- GI50 [5]: < 1 µM

SMILES: COc1cc(OC)c(Cl)c(Nc2nc3ccccc3n2-c2cc(Nc3ccc(N4CCOCC4)cc3)ncn2)c1Cl [Example 3, N-(2,6-dichloro-3,5-dimethoxyphenyl)-1-(6-((4-morpholinophenyl)amino)pyrimidin-4-yl)-1H-benz[d]imidazol-2-amine]
- GI50 [5]: < 1 µM

SMILES: CCN1CCN(c2ccc(Nc3cc(N(C)C(=O)Nc4c(Cl)c(OC)cc(OC)c4Cl)ncn3)cc2)CC1 [NVP-BGJ398, 3-(2,6-dichloro-3,5-dimethoxyphenyl)-1-{6-[4-(4-ethyl-piperazin-1-yl)phenylamino]pyrimidin-4-yl}-1-methylurea]
- inhibition activity against FGFR3, in words [6]: selective inhibition activity
- anticancer activity for the RT112 bladder cancer cell line, in words [7]: effective anticancer activity

SMILES: CNc1cc(-n2c(Nc3c(Cl)c(OC)cc(OC)c3Cl)nc3ccccc32)ncn1 [Example 9, N-(2,6-dichloro-3,5-dimethoxyphenyl)-1-(6-(methylamino)pyrimidin-4-yl)-1H-benz[d]imidazol-2-amine]
- GI50 [5]: < 1 µM

SMILES: COc1cc(OC)c(Cl)c(Nc2nc3ccccc3n2-c2cc(Nc3ccc(N4CCC(N5CCCCC5)CC4)c(C(F)(F)F)c3)ncn2)c1Cl [Example 5, 1-(6-((4-([1,4′-bipiperidin]-1′-yl)-3-(trifluoromethyl)phenyl)amino)pyrimidin-4-yl)-N-(2,6-dichloro-3,5-dimethoxyphenyl)-1H-benz[d]imidazol-2-amine]
- GI50 [5]: < 10 µM

SMILES: COc1cc(OC)c(Cl)c(Nc2nc3ccccc3n2-c2cc(Nc3ccc(CN4CCN(CC5CCCCC5)CC4)cc3)ncn2)c1Cl [Example 6, 1-(6-((4-((4-(cyclohexylmethyl)piperazin-1-yl)methyl)phenyl)amino)pyrimidin-4-yl)-N-(2,6-dichloro-3,5-dimethoxyphenyl)-1H-benz[d]imidazol-2-amine]
- GI50 [5]: < 10 µM

SMILES: COc1cc(OC)c(Cl)c(Nc2nc3ccccc3n2-c2cc(Nc3ccccc3)ncn2)c1Cl [Example 10, N-(2,6-dichloro-3,5-dimethoxyphenyl)-1-(6-(phenylamino)pyrimidin-4-yl)-1H-benz[d]imidazol-2-amine]
- GI50 [5]: < 1 µM
